Results from patent publication US8822503B2, “2-pyridone compounds” (Taisho Pharmaceutical Co., Ltd, priority 2009, dated 2014).

molecular target: T1, human liver GK (Homo sapiens, UniProt P35557); test: GK activation test; assay type: biochemical; conditions: test compound concentration needed to activate 50% of maximum activation ability; 4 mM 14C-labeled glucose, 2 mM ATP, room temperature, 20 minutes
T1 construct: GST (glutathione S-transferase) (N); made in house; host or cells: E. coli
T1 sequence (P35557 1-466 isoform P35557-2): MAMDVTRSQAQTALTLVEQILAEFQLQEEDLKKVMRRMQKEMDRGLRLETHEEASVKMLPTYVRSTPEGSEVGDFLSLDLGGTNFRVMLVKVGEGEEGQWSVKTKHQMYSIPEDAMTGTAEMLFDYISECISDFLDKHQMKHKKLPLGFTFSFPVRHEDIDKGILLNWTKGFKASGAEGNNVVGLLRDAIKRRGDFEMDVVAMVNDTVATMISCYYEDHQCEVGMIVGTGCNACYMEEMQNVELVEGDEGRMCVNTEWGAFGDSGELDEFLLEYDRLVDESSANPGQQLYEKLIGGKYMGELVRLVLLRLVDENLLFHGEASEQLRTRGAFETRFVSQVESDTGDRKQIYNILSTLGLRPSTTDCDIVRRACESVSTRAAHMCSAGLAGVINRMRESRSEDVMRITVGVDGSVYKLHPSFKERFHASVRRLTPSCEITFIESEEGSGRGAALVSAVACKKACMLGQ
Summary of the method: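 GST-tagged human liver GK from E. coli (0.24 μg/well) with 4 mM 14C-glucose, 2 mM ATP in Hepes-KOH pH 7.1, KCl, MgCl2, DTT, 1% DMSO, 20 min room temperature. Labeled glucose 6-phosphate captured on anion resin, eluted and counted. EC50 = concentration giving half of maximal activation.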

| Structure (SMILES) | EC50 [nM] |
| --- | --- |
| CC(C)COCCc1ccc(/C(=C\[C@H]2CCC(=O)N2)c2ccc(Cl)c(=O)[nH]2)cc1 [Example 4-28, 3-Chloro-6-{(E)-1-{4-[2-(2-methylpropoxy)ethyl]phenyl}-2-[(2R)-5-oxopyrrolidin-2-yl]ethenyl}pyridin-2(1H)-one] | 500 to 3000 |
| CC(C)Cc1ccc(/C(=C\[C@H]2CCC(=O)N2)c2ccc(Cl)c(=O)[nH]2)cc1 [Example 4-29, 3-Chloro-6-{(E)-1-[4-(2-methylpropyl)phenyl]-2-[(2R)-5-oxopyrrolidin-2-yl]ethenyl}pyridin-2(1H)-one] | 500 to 3000 |
| O=C1CC[C@H](/C=C(\c2ccc(OC(F)(F)F)cc2)c2ccc(Cl)c(=O)[nH]2)N1 [Example 4-30, 3-Chloro-6-{(E)-2-[(2R)-5-oxopyrrolidin-2-yl]-1-[4-(trifluoromethoxy)phenyl]ethenyl}pyridin-2(1H)-one] | 500 to 3000 |
| Cc1ccc(/C(=C\[C@H]2CCC(=O)N2)c2ccc(Cl)c(=O)[nH]2)c(C)c1 [Example 4-31, 3-Chloro-6-{(E)-1-(2,4-dimethylphenyl)-2-[(2R)-5-oxopyrrolidin-2-yl]ethenyl}pyridin-2(1H)-one] | 3000 to 10000 |
| CC(C)Oc1ccc(/C(=C\[C@H]2CCC(=O)N2)c2ccc(Cl)c(=O)[nH]2)cc1Cl [Example 4-32, 3-Chloro-6-{(E)-1-[3-chloro-4-(propan-2-yloxy)phenyl]-2-[(2R)-5-oxopyrrolidin-2-yl]ethenyl}pyridin-2(1H)-one] | 10 to 500 |
| O=C1CC[C@H](/C=C(\c2ccc(SC3CCCC3)cc2)c2ccc(Cl)c(=O)[nH]2)N1 [Example 4-33, 3-Chloro-6-{(E)-1-[4-(cyclopentylsulfanyl)phenyl]-2-[(2R)-5-oxopyrrolidin-2-yl]ethenyl}pyridin-2(1H)-one] | 10 to 500 |
| Cc1cc(/C(=C\[C@H]2CCC(=O)N2)c2ccc(Cl)c(=O)[nH]2)ccc1SC1CC1 [Example 4-34, 3-Chloro-6-{(E)-1-[4-(cyclopropylsulfanyl)-3-methylphenyl]-2-[(2R)-5-oxopyrrolidin-2-yl]ethenyl}pyridin-2(1H)-one] | 500 to 3000 |
| CSc1ccc(/C(=C\[C@H]2CCC(=O)N2)c2ccc(Cl)c(=O)[nH]2)cc1C(F)(F)F [Example 4-35, 3-Chloro-6-{(E)-1-[4-(methylsulfanyl)-3-(trifluoromethyl)phenyl]-2-[(2R)-5-oxopyrrolidin-2-yl]ethenyl}pyridin-2(1H)-one] | 500 to 3000 |
| O=C1CC[C@H](/C=C(\c2cccc(SC3CC3)c2)c2ccc(Cl)c(=O)[nH]2)N1 [Example 4-36, 3-Chloro-6-{(E)-1-[3-(cyclopropylsulfanyl)phenyl]-2-[(2R)-5-oxopyrrolidin-2-yl]ethenyl}pyridin-2(1H)-one] | 3000 to 10000 |
| O=C1CC[C@H](/C=C(\c2ccc(SC3CC3)cc2)c2ccc(Cl)c(=O)[nH]2)N1 [Example 4-37, 3-Chloro-6-{(E)-1-[4-(cyclopropylsulfanyl)phenyl]-2-[(2R)-5-oxopyrrolidin-2-yl]ethenyl}pyridin-2(1H)-one] | 10 to 500 |
| O=C1CC[C@H](/C=C(\c2ccc(OCCCCO)c(Cl)c2)c2ccc(Cl)c(=O)[nH]2)N1 [Example 4-38, 3-Chloro-6-{(E)-1-[3-chloro-4-(4-hydroxybutoxy)phenyl]-2-[(2R)-5-oxopyrrolidin-2-yl]ethenyl}pyridin-2(1H)-one] | 10 to 500 |
| CSc1ccc(/C(=C\[C@H]2CCN(C(C)=O)C2)c2ccc(C3CC3)c(=O)[nH]2)cc1 [Example 4-39, 6-{(E)-2-[(3R)-1-Acetylpyrrolidin-3-yl]-1-[4-(methylsulfanyl)phenyl]ethenyl}-3-cyclopropylpyridin-2(1H)-one] | 10 to 500 |
| CCc1ccc(/C(=C\[C@H]2CCN(C(C)=O)C2)c2ccc(Cl)c(=O)[nH]2)cc1 [Example 4-40, 6-[(E)-2-[(3R)-1-Acetylpyrrolidin-3-yl]-1-(4-ethylphenyl)ethenyl]-3-chloropyridin-2(1H)-one] | 500 to 3000 |
| CCOc1ccc(/C(=C\[C@H]2CCN(C(C)=O)C2)c2ccc(Cl)c(=O)[nH]2)cc1Cl [Example 4-41, 6-[(E)-2-[(3R)-1-Acetylpyrrolidin-3-yl]-1-(3-chloro-4-ethoxyphenyl)ethenyl]-3-chloropyridin-2(1H)-one] | 500 to 3000 |
| CSc1ccc(/C(=C\C2CCN(C(C)=O)CC2)c2ccc(C3CC3)c(=O)[nH]2)cc1 [Example 4-42, 6-{(E)-2-(1-Acetylpiperidin-4-yl)-1-[4-(methylsulfanyl)phenyl]ethenyl}-3-cyclopropylpyridin-2(1H)-one] | 3000 to 10000 |
| CC(=O)N1CCC(/C=C(\c2ccc(S(C)(=O)=O)cc2)c2ccc(C3CC3)c(=O)[nH]2)CC1 [Example 4-43, 6-{(E)-2-(1-Acetylpiperidin-4-yl)-1-[4-(methylsulfonyl)phenyl]ethenyl}-3-cyclopropylpyridin-2(1H)-one] | 3000 to 10000 |
| CSc1ccc(/C(=C\C2CN(C(C)=O)C2)c2ccc(C3CC3)c(=O)[nH]2)cc1 [Example 4-44, 6-{(E)-2-(1-Acetylazetidin-3-yl)-1-[4-(methylsulfanyl)phenyl]ethenyl}-3-cyclopropylpyridin-2(1H)-one] | 500 to 3000 |
| CSc1ccc(/C(=C\[C@H]2CCC(=O)N2C)c2ccc(C3CC3)c(=O)[nH]2)cc1 [Example 4-45, 3-Cyclopropyl-6-{(E)-2-[(2R)-1-methyl-5-oxopyrrolidin-2-yl]-1-[4-(methylsulfanyl)phenyl]ethenyl}pyridin-2(1H)-one] | 10 to 500 |
| CCc1ccc(/C(=C\[C@H]2CCCN2C(C)=O)c2ccc(Cl)c(=O)[nH]2)cc1 [Example 4-47, 6-[(E)-2-[(2R)-1-Acetylpyrrolidin-2-yl]-1-(4-ethylphenyl)ethenyl]-3-chloropyridin-2(1H)-one] | 500 to 3000 |
| CCOc1ccc(/C(=C\[C@H]2CCC(=O)N2)c2ccc(Cl)c(=O)[nH]2)cc1 [Example 4-48, 3-Chloro-6-{(E)-1-(4-ethoxyphenyl)-2-[(2R)-5-oxopyrrolidin-2-yl]ethenyl}pyridin-2(1H)-one] | 500 to 3000 |
| CCOc1ccc(/C(=C\[C@H]2CCC(=O)N2)c2ccc(Cl)c(=O)[nH]2)cc1F [Example 4-49, 3-Chloro-6-{(E)-1-(4-ethoxy-3-fluorophenyl)-2-[(2R)-5-oxopyrrolidin-2-yl]ethenyl}pyridin-2(1H)-one] | 500 to 3000 |
| CCOc1ccc(/C(=C\[C@H]2CCC(=O)N2)c2ccc(Cl)c(=O)[nH]2)cc1C [Example 4-50, 3-Chloro-6-{(E)-1-(4-ethoxy-3-methylphenyl)-2-[(2R)-5-oxopyrrolidin-2-yl]ethenyl}pyridin-2(1H)-one] | 500 to 3000 |
| CCOc1ccc(/C(=C\[C@H]2CCC(=O)N2)c2ccc(Cl)c(=O)[nH]2)cc1C(F)(F)F [Example 4-51, 3-Chloro-6-{(E)-1-[4-ethoxy-3-(trifluoromethyl)phenyl]-2-[(2R)-5-oxopyrrolidin-2-yl]ethenyl}pyridin-2(1H)-one] | 500 to 3000 |
| Cc1cc(/C(=C\[C@H]2CCC(=O)N2)c2ccc(Cl)c(=O)[nH]2)ccc1OCCCO [Example 4-52, 3-Chloro-6-{(E)-1-[4-(3-hydroxypropoxy)-3-methylphenyl]-2-[(2R)-5-oxopyrrolidin-2-yl]ethenyl}pyridin-2(1H)-one] | 500 to 3000 |
| CS(=O)(=O)c1ccc(/C(=C\[C@H]2CCC(=O)N2)c2ccc(C3CC3)c(=O)[nH]2)cc1 [Example 4-53, 3-Cyclopropyl-6-{(E)-1-[4-(methylsulfonyl)phenyl]-2-[(2R)-5-oxopyrrolidin-2-yl]ethenyl}pyridin-2(1H)-one] | 10 to 500 |
